Measurements reported in article PMC4411097, “Pachymic Acid Inhibits Growth and Induces Apoptosis of Pancreatic Cancer In Vitro and In Vivo by Targeting ER Stress” (PLoS ONE, 2015).

Test system: MIA PaCa-2 cells
Test: DNA microarray analysis (Affymetrix Human PrimeView);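 as to Mean (MiaPaca-2 * PA): Log2-transformed RMA normalized probe set signal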
Type: cell-based
[1] = gene ATF3, probeset 11753632_x_at
[2] = gene C3orf52, probeset 11724431_at
[3] = gene C3orf59, probeset 11722936_at
[4] = gene C17orf91, probeset 11740895_a_at
[5] = gene C17orf91, probeset 11740896_s_at
[6] = gene CASP1, probeset 11750553_x_at
[7] = gene CCNE2, probeset 11728301_a_at
[8] = gene CD83, probeset 11743000_at
[9] = gene CDCP1, probeset 11732062_a_at
[10] = gene CDKN1A, probeset 11715387_at
[11] = gene CEBPG, probeset 11717693_at
[12] = gene CTGF, probeset 11715440_a_at
[13] = gene CTPS, probeset 11747890_a_at
[14] = gene CTSC, probeset 11731465_a_at
[15] = gene DDIT3, probeset 11758198_s_at
[16] = gene DNAJB1, probeset 11715445_a_at
[17] = gene DNAJB1, probeset 11715446_a_at
[18] = gene EGR1, probeset 11717862_x_at
[19] = gene EGR1, probeset 11754334_s_at
[20] = gene EGR3, probeset 11736342_at
[21] = gene EIF4A2, probeset 11760707_a_at
[22] = gene EIF4A2, probeset 11760708_at
[23] = gene FOS, probeset 11734659_a_at
[24] = gene FOSL1, probeset 11760574_x_at
[25] = gene HKDC1, probeset 11722519_at
[26] = gene HKDC1, probeset 11722521_at

For `C=C(CC[C@@H](C(=O)O)[C@H]1[C@H](O)C[C@@]2(C)C3=C(CC[C@]12C)[C@@]1(C)CC[C@H](OC(C)=O)C(C)(C)[C@@H]1CC3)C(C)C` [PA, Pachymic acid], the “Fold-Change (MiaPaca-2 * PA vs. MiaPaca-2 * control)” value (shortened to “Fold-Change”) (gene AEN, probeset 11754296_a_at, MiaPaca-2) was 1.50, the “Mean (MiaPaca-2 * PA)” value (gene AEN, probeset 11754296_a_at, MiaPaca-2, PA-treated) was 8.26 and the “Fold-Change” value [1] was 1.60. The “Mean (MiaPaca-2 * PA)” value [1] was 5.51, the “Fold-Change” value [2] was 1.60 and the “Mean (MiaPaca-2 * PA)” value [2] was 7.34. For the same molecule, the “Fold-Change” value [3] was 1.55, the “Mean (MiaPaca-2 * PA)” value [3] was 8.02 and the “Fold-Change” value (gene C6orf145, probeset 11754483_a_at, MiaPaca-2) was 1.51. The “Mean (MiaPaca-2 * PA)” value (gene C6orf145, probeset 11754483_a_at, MiaPaca-2, PA-treated) was 7.32, the “Fold-Change” value [4] was 1.61 and the “Mean (MiaPaca-2 * PA)” value [4] was 7.42. The “Fold-Change” value [5] was 1.67, the “Mean (MiaPaca-2 * PA)” value [5] was 7.56 and the “Fold-Change” value (gene CAMTA1, probeset 11723154_s_at, MiaPaca-2) was 1.52. For the same molecule, the “Mean (MiaPaca-2 * PA)” value (gene CAMTA1, probeset 11723154_s_at, MiaPaca-2, PA-treated) was 6.50, the “Fold-Change” value (gene CAPRIN2, probeset 11749098_a_at, MiaPaca-2) was 1.50 and the “Mean (MiaPaca-2 * PA)” value (gene CAPRIN2, probeset 11749098_a_at, MiaPaca-2, PA-treated) was 8.43. The “Fold-Change” value (gene CASP1, probeset 11738884_x_at, MiaPaca-2) was 1.53, the “Mean (MiaPaca-2 * PA)” value (gene CASP1, probeset 11738884_x_at, MiaPaca-2, PA-treated) was 7.07 and the “Fold-Change” value [6] was 1.55. The “Mean (MiaPaca-2 * PA)” value [6] was 7.39, the “Fold-Change” value [7] was 1.56 and the “Mean (MiaPaca-2 * PA)” value [7] was 6.40. For the same molecule, the “Fold-Change” value [8] was 1.58, the “Mean (MiaPaca-2 * PA)” value [8] was 7.70 and the “Fold-Change” value (gene CDC25A, probeset 11726757_s_at, MiaPaca-2) was 1.51. The “Mean (MiaPaca-2 * PA)” value (gene CDC25A, probeset 11726757_s_at, MiaPaca-2, PA-treated) was 7.92, the “Fold-Change” value [9] was 1.58 and the “Mean (MiaPaca-2 * PA)” value [9] was 6.86. For the same molecule, the “Fold-Change” value [10] was 1.56, the “Mean (MiaPaca-2 * PA)” value [10] was 6.94 and the “Fold-Change” value [11] was 1.57. The “Mean (MiaPaca-2 * PA)” value [11] was 9.81, the “Fold-Change” value (gene CEBPG, probeset 11717694_a_at, MiaPaca-2) was 1.51 and the “Mean (MiaPaca-2 * PA)” value (gene CEBPG, probeset 11717694_a_at, MiaPaca-2, PA-treated) was 8.37. For the same molecule, the “Fold-Change” value (gene CIDEB, probeset 11752838_s_at, MiaPaca-2) was 1.52, the “Mean (MiaPaca-2 * PA)” value (gene CIDEB, probeset 11752838_s_at, MiaPaca-2, PA-treated) was 5.52 and the “Fold-Change” value [12] was 1.65. For the same molecule, the “Mean (MiaPaca-2 * PA)” value [12] was 5.48, the “Fold-Change” value [13] was 1.56 and the “Mean (MiaPaca-2 * PA)” value [13] was 7.43. For the same molecule, the “Fold-Change” value [14] was 1.61, the “Mean (MiaPaca-2 * PA)” value [14] was 7.37 and the “Fold-Change” value [15] was 1.54. For the same molecule, the “Mean (MiaPaca-2 * PA)” value [15] was 6.68, the “Fold-Change” value [16] was 1.59 and the “Mean (MiaPaca-2 * PA)” value [16] was 10.46. The “Fold-Change” value [17] was 1.56, the “Mean (MiaPaca-2 * PA)” value [17] was 11.54 and the “Fold-Change” value (gene DUSP2, probeset 11721695_s_at, MiaPaca-2) was 1.51. The “Mean (MiaPaca-2 * PA)” value (gene DUSP2, probeset 11721695_s_at, MiaPaca-2, PA-treated) was 7.47, the “Fold-Change” value (gene DUSP5, probeset 11717863_a_at, MiaPaca-2) was 1.52 and the “Mean (MiaPaca-2 * PA)” value (gene DUSP5, probeset 11717863_a_at, MiaPaca-2, PA-treated) was 7.89. For the same molecule, the “Fold-Change” value (gene DUSP6, probeset 11741980_a_at, MiaPaca-2) was 1.53, the “Mean (MiaPaca-2 * PA)” value (gene DUSP6, probeset 11741980_a_at, MiaPaca-2, PA-treated) was 10.54 and the “Fold-Change” value [18] was 1.65. For the same molecule, the “Mean (MiaPaca-2 * PA)” value [18] was 7.37, the “Fold-Change” value [19] was 1.60 and the “Mean (MiaPaca-2 * PA)” value [19] was 10.76. The “Fold-Change” value [20] was 1.55, the “Mean (MiaPaca-2 * PA)” value [20] was 6.51 and the “Fold-Change” value [21] was 1.61. For the same molecule, the “Mean (MiaPaca-2 * PA)” value [21] was 10.11, the “Fold-Change” value [22] was 1.66 and the “Mean (MiaPaca-2 * PA)” value [22] was 7.82. The “Fold-Change” value (gene EIF4A2 /// SNORA4, probeset 11757137_s_at, MiaPaca-2) was 1.51, the “Mean (MiaPaca-2 * PA)” value (gene EIF4A2 /// SNORA4, probeset 11757137_s_at, MiaPaca-2, PA-treated) was 5.63 and the “Fold-Change” value (gene EREG, probeset 11763822_at, MiaPaca-2) was 1.52. The “Mean (MiaPaca-2 * PA)” value (gene EREG, probeset 11763822_at, MiaPaca-2, PA-treated) was 6.66, the “Fold-Change” value (gene FLJ36031, probeset 11739442_s_at, MiaPaca-2) was 1.53 and the “Mean (MiaPaca-2 * PA)” value (gene FLJ36031, probeset 11739442_s_at, MiaPaca-2, PA-treated) was 8.29. The “Fold-Change” value [23] was 1.61, the “Mean (MiaPaca-2 * PA)” value [23] was 7.33 and the “Fold-Change” value (gene FOSL1, probeset 11724479_x_at, MiaPaca-2) was 1.52. The “Mean (MiaPaca-2 * PA)” value (gene FOSL1, probeset 11724479_x_at, MiaPaca-2, PA-treated) was 6.50, the “Fold-Change” value [24] was 1.56 and the “Mean (MiaPaca-2 * PA)” value [24] was 8.39. The “Fold-Change” value (gene GBP1, probeset 11726328_x_at, MiaPaca-2) was 1.50, the “Mean (MiaPaca-2 * PA)” value (gene GBP1, probeset 11726328_x_at, MiaPaca-2, PA-treated) was 5.03 and the “Fold-Change” value (gene HERPUD1, probeset 11741510_a_at, MiaPaca-2) was 1.50. For the same molecule, the “Mean (MiaPaca-2 * PA)” value (gene HERPUD1, probeset 11741510_a_at, MiaPaca-2, PA-treated) was 9.22, the “Fold-Change” value [25] was 1.60 and the “Mean (MiaPaca-2 * PA)” value [25] was 8.79. For the same molecule, the “Fold-Change” value [26] was 1.59, the “Mean (MiaPaca-2 * PA)” value [26] was 6.86 and the “Fold-Change” value (gene HMOX1, probeset 11753446_x_at, MiaPaca-2) was 1.50. For the same molecule, the “Mean (MiaPaca-2 * PA)” value (gene HMOX1, probeset 11753446_x_at, MiaPaca-2, PA-treated) was 6.67.
